Legend:
[1] = molecular target: α4β1 integrin (Homo sapiens (Human), UniProt P05556+P13612); test: Integrin Adhesion Assay: Protocol 5 (VCAM-coated plate, RPMI-8866 cells with stable LOF mutation of the ITGB7 gene); assay type: cell-based; conditions: RPMI-8866 cells with stable LOF mutation of the ITGB7 gene; read-out: Mean IC50 α4β1 KO^b
How it was run: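 RPMI-8866 B cells with CRISPR/Cas9 ITGB7 knockout (clonal, verified by flow cytometry) adhered to VCAM-coated wells for 1 h at 37° C in HEPES/NaCl buffer with 1 mM MnCl2, 0.1 mM CaCl2, 1% BSA, 1% DMSO. Bound cells quantified by CellTiter-Glo luminescence after washing; % inhibition versus DMSO and control, 4-parameter fit.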

[2] = molecular target: α4β7 integrin (Homo sapiens (Human), UniProt P13612+P26010); test: Integrin Adhesion Assay: Protocol 4 (MAdCAM-coated plate, RPMI-8866 cells with stable LOF mutation of the ITGB1 gene); assay type: cell-based; conditions: RPMI-8866 cells with stable LOF mutation of the ITGB1 gene; read-out: Mean IC50 α4β7 KO^a
α4β7 integrin, sequence (P13612 34-1032): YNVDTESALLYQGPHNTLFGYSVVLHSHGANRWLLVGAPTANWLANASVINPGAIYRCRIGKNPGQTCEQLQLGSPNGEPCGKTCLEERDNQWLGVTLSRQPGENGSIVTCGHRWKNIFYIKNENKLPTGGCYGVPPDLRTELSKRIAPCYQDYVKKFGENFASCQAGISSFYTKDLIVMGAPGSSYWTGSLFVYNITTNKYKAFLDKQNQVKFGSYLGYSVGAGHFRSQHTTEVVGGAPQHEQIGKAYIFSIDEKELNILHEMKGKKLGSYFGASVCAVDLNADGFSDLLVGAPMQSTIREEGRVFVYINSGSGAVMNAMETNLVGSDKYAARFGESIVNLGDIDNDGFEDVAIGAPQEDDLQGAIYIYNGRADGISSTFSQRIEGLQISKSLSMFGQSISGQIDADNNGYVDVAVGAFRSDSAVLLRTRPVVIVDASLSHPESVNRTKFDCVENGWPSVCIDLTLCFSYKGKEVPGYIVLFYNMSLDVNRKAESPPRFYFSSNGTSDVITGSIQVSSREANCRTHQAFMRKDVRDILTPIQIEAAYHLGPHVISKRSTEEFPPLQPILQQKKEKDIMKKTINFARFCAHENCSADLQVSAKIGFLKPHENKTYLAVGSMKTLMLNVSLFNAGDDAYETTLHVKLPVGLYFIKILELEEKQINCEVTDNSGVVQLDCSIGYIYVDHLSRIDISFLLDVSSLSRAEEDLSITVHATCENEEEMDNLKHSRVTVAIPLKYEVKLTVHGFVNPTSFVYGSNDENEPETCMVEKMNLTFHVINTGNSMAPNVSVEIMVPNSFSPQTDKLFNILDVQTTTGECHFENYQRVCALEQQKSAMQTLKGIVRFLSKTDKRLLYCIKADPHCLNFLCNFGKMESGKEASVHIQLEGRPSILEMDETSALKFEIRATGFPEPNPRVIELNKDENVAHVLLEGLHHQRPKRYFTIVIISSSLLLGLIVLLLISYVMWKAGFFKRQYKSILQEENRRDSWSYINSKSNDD
α4β7 integrin, sequence (P26010 20-798): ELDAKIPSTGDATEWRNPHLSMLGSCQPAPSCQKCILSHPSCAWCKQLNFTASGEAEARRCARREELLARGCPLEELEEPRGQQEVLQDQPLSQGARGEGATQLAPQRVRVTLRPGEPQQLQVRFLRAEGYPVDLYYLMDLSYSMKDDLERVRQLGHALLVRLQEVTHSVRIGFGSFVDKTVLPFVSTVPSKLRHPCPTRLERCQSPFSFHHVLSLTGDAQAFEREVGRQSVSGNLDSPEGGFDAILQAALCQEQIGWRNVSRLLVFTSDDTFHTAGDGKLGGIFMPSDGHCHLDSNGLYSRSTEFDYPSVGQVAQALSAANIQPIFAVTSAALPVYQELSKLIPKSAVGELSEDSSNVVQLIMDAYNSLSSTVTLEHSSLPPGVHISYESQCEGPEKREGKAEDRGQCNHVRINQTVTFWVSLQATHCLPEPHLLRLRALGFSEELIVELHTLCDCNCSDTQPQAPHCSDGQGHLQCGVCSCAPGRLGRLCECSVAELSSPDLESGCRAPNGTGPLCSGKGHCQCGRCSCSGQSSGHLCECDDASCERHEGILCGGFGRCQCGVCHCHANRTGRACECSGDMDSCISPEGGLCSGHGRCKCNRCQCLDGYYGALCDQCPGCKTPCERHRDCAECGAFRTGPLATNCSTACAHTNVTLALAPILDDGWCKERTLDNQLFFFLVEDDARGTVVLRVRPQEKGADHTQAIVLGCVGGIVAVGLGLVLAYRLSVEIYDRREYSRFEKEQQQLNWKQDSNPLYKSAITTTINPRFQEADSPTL
How it was run: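 RPMI-8866 cells with CRISPR/Cas9 knockout of ITGB1 (2×10^6/mL) were added to MAdCAM-coated wells with compound (1% DMSO) in HEPES/NaCl buffer with 1 mM MnCl2, 0.1 mM CaCl2 and 1% BSA, then incubated 1 h at 37 °C. After four washes, adherent cells were quantified by CellTiter-Glo luminescence. Percent inhibition versus DMSO and control compound was fitted to 4-parameter curves.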

α4β1 integrin, sequence (P13612 34-1032): as the sequence (P13612 34-1032) above
α4β1 integrin, sequence (P05556 21-798): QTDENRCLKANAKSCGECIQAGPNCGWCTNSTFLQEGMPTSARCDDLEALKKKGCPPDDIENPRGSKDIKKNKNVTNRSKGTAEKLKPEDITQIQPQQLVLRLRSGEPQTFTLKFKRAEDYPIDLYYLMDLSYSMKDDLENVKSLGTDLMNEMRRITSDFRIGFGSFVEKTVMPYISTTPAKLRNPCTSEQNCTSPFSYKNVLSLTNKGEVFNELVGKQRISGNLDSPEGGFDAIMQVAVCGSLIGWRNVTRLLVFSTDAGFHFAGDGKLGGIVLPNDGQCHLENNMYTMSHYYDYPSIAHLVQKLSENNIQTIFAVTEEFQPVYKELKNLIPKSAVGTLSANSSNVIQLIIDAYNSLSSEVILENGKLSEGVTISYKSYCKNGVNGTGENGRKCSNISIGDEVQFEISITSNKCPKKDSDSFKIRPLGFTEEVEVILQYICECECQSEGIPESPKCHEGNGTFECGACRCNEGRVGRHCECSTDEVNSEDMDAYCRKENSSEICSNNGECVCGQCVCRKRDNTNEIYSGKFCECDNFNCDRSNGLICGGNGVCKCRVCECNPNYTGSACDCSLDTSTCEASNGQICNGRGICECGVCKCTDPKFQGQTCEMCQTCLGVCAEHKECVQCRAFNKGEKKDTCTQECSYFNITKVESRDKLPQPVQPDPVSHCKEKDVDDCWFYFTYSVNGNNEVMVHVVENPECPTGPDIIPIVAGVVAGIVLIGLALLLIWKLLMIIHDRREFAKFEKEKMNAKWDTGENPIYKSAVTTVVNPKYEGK

| SMILES | IC50 [1] | IC50 [2] |
| --- | --- | --- |
| COc1ccc(CN(C)C)c(OC)c1-c1cccc2c(C[C@H](NC(=O)c3c(C)cccc3Cl)C(=O)O)cccc12 [Compound 613] | 100 to 1000 nM | < 10 nM |
| COc1ccc(CN2CCC(F)(F)CC2)c(OC)c1-c1cccc2c(C[C@H](NC(=O)c3c(F)cncc3Cl)C(=O)O)cccc12 [Compound 614] | 100 to 1000 nM | 10 to 100 nM |
| COc1ccc(CN2CCC(F)(F)CC2)c(OC)c1-c1cccc2c(C[C@H](NC(=O)c3c(F)ccnc3C)C(=O)O)cccc12 [Compound 615] | > 1000 nM | 10 to 100 nM |
| COc1ccc(CN2CCC(F)(F)CC2)c(OC)c1-c1cccc2c(C[C@H](NC(=O)c3c(C)cc(C45CCOCC4C5)cc3F)C(=O)O)cccc12 (stereo partly drawn) [Compound 616] | > 1000 nM | 10 to 100 nM |
| CN(C)Cc1cc(-c2cccc3c(C[C@H](NC(=O)C4(C(F)(F)F)CCN(CC(F)(F)F)CC4)C(=O)O)cccc23)c2cnccc2c1 [Compound 618] | > 1000 nM | 10 to 100 nM |
| Cc1cccc(F)c1C(=O)N[C@@H](Cc1cccc2c(-c3nccc4c(CN5CCCC5)cccc34)cccc12)C(=O)O [Compound 619] | > 1000 nM | < 10 nM |
| O=C(O)[C@H](Cc1cccc2c(-c3cc(CN4CCCC4)cc4ccncc34)cccc12)NC(=O)C1(C(F)(F)F)CCN(C2COC2)CC1 [Compound 620] | > 1000 nM | < 10 nM |
| COc1ccc(CN2CCCCC2)c(OC)c1-c1cccc2c(C[C@H](NC(=O)c3c(C)cccc3F)C(=O)O)cccc12 [Compound 621] | 100 to 1000 nM | < 10 nM |
| CCN(CC)Cc1ccc(OC)c(-c2cccc3c(C[C@H](NC(=O)c4c(C)cccc4F)C(=O)O)cccc23)c1OC [Compound 622] | 100 to 1000 nM | < 10 nM |
| COc1ccc(CN2CCC3(CC2)CC3)c(OC)c1-c1cccc2c(C[C@H](NC(=O)c3c(C)cccc3F)C(=O)O)cccc12 [Compound 623] | 100 to 1000 nM | < 10 nM |
| COc1ccc(CN2CCC(F)CC2)c(OC)c1-c1cccc2c(C[C@H](NC(=O)c3c(C)cccc3F)C(=O)O)cccc12 [Compound 624] | 100 to 1000 nM | < 10 nM |
| COc1ccc(CN2CCC(C)CC2)c(OC)c1-c1cccc2c(C[C@H](NC(=O)c3c(C)cccc3F)C(=O)O)cccc12 [Compound 625] | 100 to 1000 nM | < 10 nM |
| COc1ccc(CN2CCC(C)(C)CC2)c(OC)c1-c1cccc2c(C[C@H](NC(=O)c3c(C)cccc3F)C(=O)O)cccc12 [Compound 626] | 100 to 1000 nM | < 10 nM |
| COc1ccc(CN2CC(F)(F)C2)c(OC)c1-c1cccc2c(C[C@H](NC(=O)c3c(C)cccc3F)C(=O)O)cccc12 [Compound 627] | > 1000 nM | 10 to 100 nM |
| COc1ccc(CN2CCC2)c(OC)c1-c1cccc2c(C[C@H](NC(=O)c3c(C)cccc3F)C(=O)O)cccc12 [Compound 628] | 100 to 1000 nM | < 10 nM |
| COc1ccc(CN2CCC(F)C2)c(OC)c1-c1cccc2c(C[C@H](NC(=O)c3c(C)cccc3F)C(=O)O)cccc12 (stereo partly drawn) [Compound 629] | > 1000 nM | < 10 nM |
| COc1ccc(CN2CCCCC2(C)C)c(OC)c1-c1cccc2c(C[C@H](NC(=O)c3c(C)cccc3F)C(=O)O)cccc12 [Compound 630] | 100 to 1000 nM | < 10 nM |
| COc1ccc(CN2CCCCC2C)c(OC)c1-c1cccc2c(C[C@H](NC(=O)c3c(C)cccc3F)C(=O)O)cccc12 (stereo partly drawn) [Compound 631] | 100 to 1000 nM | < 10 nM |
| COc1ccc(CN2C(C)CCCC2C)c(OC)c1-c1cccc2c(C[C@H](NC(=O)c3c(C)cccc3F)C(=O)O)cccc12 (stereo partly drawn) [Compound 632] | 100 to 1000 nM | < 10 nM |
| COc1ccc(CN2CCCC2C)c(OC)c1-c1cccc2c(C[C@H](NC(=O)c3c(C)cccc3F)C(=O)O)cccc12 (stereo partly drawn) [Compound 633] | 10 to 100 nM | < 10 nM |
| COc1ccc(CN2CCC(F)(F)CC2)c(OC)c1-c1cccc2c(C[C@H](NC(=O)c3c(C)cccc3F)C(=O)O)cccc12 [Compound 634] | > 1000 nM | 10 to 100 nM |
| COc1ccc(CN2C(C)CCC2C)c(OC)c1-c1cccc2c(C[C@H](NC(=O)c3c(C)cccc3F)C(=O)O)cccc12 (stereo partly drawn) [Compound 635] | > 1000 nM | 10 to 100 nM |
| COc1ccc(CN(C)CCF)c(OC)c1-c1cccc2c(C[C@H](NC(=O)c3c(C)cccc3F)C(=O)O)cccc12 [Compound 636] | 100 to 1000 nM | < 10 nM |
| COc1ccc(CN(C)CC(F)F)c(OC)c1-c1cccc2c(C[C@H](NC(=O)c3c(C)cccc3F)C(=O)O)cccc12 [Compound 637] | 100 to 1000 nM | < 10 nM |

| SMILES | IC50 [1] | IC50 [2] |
| --- | --- | --- |
| COc1ccc(CN2CC(OC)C2)c(OC)c1-c1cccc2c(C[C@H](NC(=O)c3c(C)cccc3F)C(=O)O)cccc12 [Compound 638] | 100 to 1000 nM | < 10 nM |
| O=C(O)[C@H](Cc1cccc2c(-c3nccc4c(CN5CCCCC5)cccc34)cccc12)NC(=O)C1(C(F)(F)F)CCN([C@H]2COCC2(F)F)CC1 [Compound 641] | 100 to 1000 nM | < 10 nM |
| O=C(O)[C@H](Cc1cccc2c(-c3nccc4c(CN5CCCCC5)cccc34)cccc12)NC(=O)C1(C(F)(F)F)CCN([C@@H]2COCC2(F)F)CC1 [Compound 642] | > 1000 nM | < 10 nM |
| COc1ccc(CN2CCCC(C)C2)c(OC)c1-c1cccc2c(C[C@H](NC(=O)c3c(C)cccc3F)C(=O)O)cccc12 (stereo partly drawn) [Compound 643] | 100 to 1000 nM | < 10 nM |
| CN1CCCC1c1cc(-c2cccc3c(C[C@H](NC(=O)C4(C(F)(F)F)CCN(C5COC5)CC4)C(=O)O)cccc23)c2cnccc2c1 (stereo partly drawn) [Compound 644] | 100 to 1000 nM | < 10 nM |
| COc1ccc(CN(C)C)c(OC)c1-c1cccc2c(C[C@H](NC(=O)c3c(F)cccc3C3CC3)C(=O)O)cccc12 [Compound 645] | > 1000 nM | < 10 nM |
| COc1ccc(CN2CCCCC2)c(OC)c1-c1cccc2c(C[C@H](NC(=O)c3c(F)cccc3C#N)C(=O)O)cccc12 [Compound 646] | > 1000 nM | 100 to 1000 nM |
| COc1cccc(F)c1C(=O)N[C@@H](Cc1cccc2c(-c3c(OC)ccc(CN4CCCCC4)c3OC)cccc12)C(=O)O [Compound 647] | 100 to 1000 nM | < 10 nM |
| COc1ccc(CN2CCCCC2)c(OC)c1-c1cccc2c(C[C@H](NC(=O)c3c(F)cccc3-c3ccccc3)C(=O)O)cccc12 [Compound 648] | > 1000 nM | < 10 nM |
| CCc1cccc(F)c1C(=O)N[C@@H](Cc1cccc2c(-c3c(OC)ccc(CN4CCCCC4)c3OC)cccc12)C(=O)O [Compound 649] | 100 to 1000 nM | < 10 nM |
| COc1ccc(CN2CCOCC2)c(OC)c1-c1cccc2c(C[C@H](NC(=O)c3c(C)cccc3F)C(=O)O)cccc12 [Compound 650] | 100 to 1000 nM | < 10 nM |
| COc1ccc(CN2C[C@@H](C)O[C@@H](C)C2)c(OC)c1-c1cccc2c(C[C@H](NC(=O)c3c(C)cccc3F)C(=O)O)cccc12 [Compound 651] | 100 to 1000 nM | < 10 nM |
| COc1ccc(CN2CCC(CF)CC2)c(OC)c1-c1cccc2c(C[C@H](NC(=O)c3c(C)cccc3F)C(=O)O)cccc12 [Compound 652] | 100 to 1000 nM | < 10 nM |
| COc1ccc(CN2CCCC(F)(F)CC2)c(OC)c1-c1cccc2c(C[C@H](NC(=O)c3c(C)cccc3F)C(=O)O)cccc12 [Compound 653] | 100 to 1000 nM | < 10 nM |
| COc1ccc(CN2CCC3(CCCCC3)CC2)c(OC)c1-c1cccc2c(C[C@H](NC(=O)c3c(C)cccc3F)C(=O)O)cccc12 [Compound 654] | > 1000 nM | < 10 nM |
| COc1ccc(CN2CCC3(CCOC3)CC2)c(OC)c1-c1cccc2c(C[C@H](NC(=O)c3c(C)cccc3F)C(=O)O)cccc12 [Compound 655] | > 1000 nM | < 10 nM |
| COc1ccc(CN2CCN(C3CCC3)CC2)c(OC)c1-c1cccc2c(C[C@H](NC(=O)c3c(C)cccc3F)C(=O)O)cccc12 [Compound 656] | 100 to 1000 nM | < 10 nM |
| COc1ccc(CN2CC(OC(C)(C)C)C2)c(OC)c1-c1cccc2c(C[C@H](NC(=O)C3(C(F)(F)F)CCN(CC(F)(F)F)CC3)C(=O)O)cccc12 [Compound 657] | > 1000 nM | < 10 nM |
| COc1ccc(CN2CCC(C)(C)CC2)c(C(F)(F)F)c1-c1cccc2c(C[C@H](NC(=O)c3c(C)cccc3F)C(=O)O)cccc12 [Compound 658] | 100 to 1000 nM | < 10 nM |
| CC(C)(C)C1CCN(Cc2cccc3c(-c4cccc5c(C[C@H](NC(=O)C6(C(F)(F)F)CCN(CC(F)(F)F)CC6)C(=O)O)cccc45)nccc23)CC1 [Compound 659] | > 1000 nM | 10 to 100 nM |
| O=C(O)[C@H](Cc1cccc2c(-c3nccc4c(CN5CCOC(C(F)(F)F)C5)cccc34)cccc12)NC(=O)C1(C(F)(F)F)CCN(CC(F)(F)F)CC1 (stereo partly drawn) [Compound 660] | > 1000 nM | 10 to 100 nM |
| O=C(O)[C@H](Cc1cccc2c(-c3nccc4c(CN5CCC6(CCCCC6)CC5)cccc34)cccc12)NC(=O)C1(C(F)(F)F)CCN(CC(F)(F)F)CC1 [Compound 661] | > 1000 nM | 10 to 100 nM |
| COc1c(CN2CCCCC2)ccc(C(F)(F)F)c1-c1cccc2c(C[C@H](NC(=O)C3(C(F)(F)F)CCN(CC(F)(F)F)CC3)C(=O)O)cccc12 [Compound 662] | > 1000 nM | 10 to 100 nM |
| COc1ccc(CN2CCC(F)(F)CC2)c(OC)c1-c1cccc2c(C[C@H](NC(=O)c3c(C)cc4cn(CC(F)(F)F)nc4c3F)C(=O)O)cccc12 [Compound 664] | > 1000 nM | 100 to 1000 nM |
